Source: patent publication US9056923B2, “Mimetic peptides derived from collagen type IV and their use for treating angiogenesis- and lymphagiogenesis-dependent diseases” (THE JOHNS HOPKINS UNIVERSITY, priority 2010, dated 2015)
Square brackets hold non-standard residues; d marks the D form. Ends that are not written are not given here. Peptide text beside a SMILES is read from it. Abu = CC[C@H](N)C(=O)O

Legend:
Format in all cases: cell-based, human
HUVEC [1] = conditions: HUVEC; for Activity in Proliferation: Yes/No summary
Experimental: Several assays were used to test the peptides discussed in the Examples herein. A colorimetric based proliferation assay using WST-1 (Roche, 11644807001) proliferation reagent was carried out using HUVEC cells. 2000 cells/well were plated in 96-well plates and allowed to adhere overnight. On the following day, the media was exchanged with fully supplemented media containing peptides or equivalent DMSO vehicle for the controls. Three days later the media containing the peptides was replaced with serum-free EBM-2 media containing WST-1 reagent and the plates were incubated for four hours as per the manufacturer's recommendations. Changes in color, due to the formazan dye resulted from the cleavage of the tetrazolium salt WST-1 by the mitochondrial succinate-tetrazolium reductase, were read on a Victor V fluorescence plate reader (Perkin Elmer, MA) by measuring the absorbance at 450 nm Dose response curves of percent live cells (in comparison to untreated cells but incubated in complete media with 0.2% DMSO) were created. Assays were performed in at least two independent replicates and each replicate was performed using three experimental triplicates.

HUVEC [2] = assay: HUVEC migration assay (RT-CIM); conditions: for Activity in Migration: Yes/No summary, active = inhibitory potential greater than 30%; for Migration Inhibition (50 uM): 50 uM peptide; for Migration Inhibition (5 uM): 5 uM peptide
Experimental: The inhibitory potential of the peptides was measured using a real time migration assay system based on electrical impedance (RT-CIM, ACEA Biosciences, CA). CIM 16 well plates (Roche, 05665817001) are composed of a top and bottom chamber separated by a microporous (8 μm) polycarbonate membrane. The membrane was coated with fibronectin (20 μg/mL), and 45,000 cells/well in serum free media with or without peptides were added to the top compartment. Media with chemoattractant (i.e., fully supplemented EBM-2) was added to the bottom compartment of the chamber and the plate was incubated at 37° C. for 20 hours. The sensors integrated on the bottom side of the membrane monitor and continuously record changes in impedance as the cells move through the membrane. The RT-CIM technology allows for easy quantification of cell migration by monitoring the cell index derived from the measured impedances. Assays were performed in at least two independent replicates and each replicate was performed using two experimental duplicates.

HUVEC [3] = conditions: HUVEC; for Adhesion Inhibition (100 uM): 100 uM peptide; for Activity in Adhesion: Yes/No summary, active = inhibitory potential greater than 30%
Experimental: Similar to the migration assays, the inhibition activity of the peptide in cellular adhesion was assessed using the RT-CIM technology. In this case, 25,000 cells/well were plated in 16 wells E-plates (Roche, Basel Switzerland) in the presence or absence of the peptide. The adhesion was monitored over time (3 hours) by measuring changes in the electrical impedance, which is a direct measure of the cells adhering on the electrodes. […] Assays were performed in at least two independent replicates and each replicate was performed using two experimental duplicates.

HUVEC [4] = assay: HUVEC tube formation assay on Matrigel; conditions: for Activity in Tube formation: Yes/No summary; for Tube formation Inhibition (100 uM): 100 uM peptide; for inhibition of tube formation: concentration not given
Experimental: The compounds also were tested for their ability to inhibit tube formation, a process critical in angiogenesis. Endothelial cells spontaneously form a network of tubes when plated on extracts of extracellular matrix. This in vitro assay combines aspects of adhesion and migration and it is routinely used in angiogenesis research (Oliveira-Ferrer et al., 2008). The ability to inhibit tube formation is a comprehensive assessment of the anti-angiogenic potential. The protocol was described by Arnaoutova et al. (2009) and it consists of plating HUVEC on top of basement membrane extract and after incubation at 37° C. the cells naturally rearrange themselves in a network of tubes. Thus, 50 μL/well of Matrigel (BD Biosciences, San Jose, Calif.) was plated in a cold 96 well plate and incubated at 37° C. for 30 min for polymerization. 15,000 cells/well were added to the top of the gel and incubated in complete media in the presence or absence of peptide for 19 hours. Images were captured using the CCD Sensicam mounted on a Nikon microscope (Eclipse T-100). Assays were performed in at least two independent replicates and each replicate was performed using three experimental replicates and one image of a randomly chosen field was acquired per well.

Compound | inhibition of proliferation (HUVEC [1]) | Activity in Proliferation (HUVEC [1]) | Activity in Migration (HUVEC [2]) | Adhesion Inhibition (100 uM) (HUVEC [3]) [%] | Activity in Adhesion (HUVEC [3]) | Activity in Tube formation (HUVEC [4]) | migration inhibition (HUVEC [2]; concentration not given) [%] | inhibition of adhesion at 50 μM (HUVEC [3]; 50 μM peptide) | Tube formation Inhibition (100 uM) (HUVEC [4]) | inhibition of tube formation (HUVEC [4]) | inhibition of tube formation (FIG. 20) (HUVEC [4]; high dose, 100 nM) | Migration Inhibition (50 uM) (HUVEC [2]) [%] | Migration Inhibition (5 uM) (HUVEC [2]) [%]
LRRFSTMPFMFSNINNVSNF-NH2 [SP2022] | not affected | Yes | Yes | 96.49 | Yes | Yes | – | – | – | – | – | – | –
CC[C@H](NC(=O)[C@H](Cc1ccccc1)NC(=O)[C@H](CCSC)NC(=O)[C@H](Cc1ccccc1)NC(=O)[C@@H]1CCCN1C(=O)[C@H](CCSC)NC(=O)[C@@H](NC(=O)[C@H](CO)NC(=O)[C@H](Cc1ccccc1)NC(=O)[C@H](CCCNC(=N)N)NC(=O)[C@H](CCCNC(=N)N)NC(=O)[C@@H](N)CC(C)C)[C@@H](C)O)C(=O)N[C@@H](CC(N)=O)C(=O)N[C@H](C(=O)N[C@@H](CC(N)=O)C(=O)N[C@H](C(=O)O)C(C)C)[C@@H](C)CC [SP2006, LRRFSTMPFMFAbuNINV] (H-LRRFSTMPFMF[Abu]NINV-OH; N-terminus and C-terminus assumed) | did not inhibit proliferation | No | No | – | Yes | Yes | 18 | inhibition of adhesion | Complete | Inhibition of tube formation | active at inhibiting tube formation | – | –
CC[C@H](NC(=O)[C@H](Cc1ccccc1)NC(=O)[C@H](CCSC)NC(=O)[C@H](Cc1ccccc1)NC(=O)[C@@H]1CCCN1C(=O)[C@H](CCSC)NC(=O)[C@@H](NC(=O)[C@H](CO)NC(=O)[C@H](Cc1ccccc1)NC(=O)[C@H](CCCNC(=N)N)NC(=O)[C@H](CCCNC(=N)N)NC(=O)[C@@H](N)CC(C)C)[C@@H](C)O)C(=O)N[C@@H](CC(N)=O)C(=O)N[C@H](C(=O)N[C@@H](CC(N)=O)C(=O)N[C@@H](CC(N)=O)C(N)=O)[C@@H](C)CC [SP2028, LRRFSTMPFMFAbuNINN] (H-LRRFSTMPFMF[Abu]NINN-NH2; N-terminus assumed) | – | Yes | Yes | 96.8 | Yes | Yes | – | – | Complete | Inhibition of tube formation | – | 48.87 | –
LRRFSTMPFMFTNINV-NH2 [SP2029, LRRFSTMPFMFTNINV] | potent activity in inhibiting proliferation | Yes | Yes | 93.75 | Yes | Yes | – | – | Complete | Inhibition of tube formation | – | 54.13 | –
LRRFSTMPFMFVNINNVVNF-NH2 [SP2027] | not affected | Yes | Yes | 96.75 | Yes | Yes | – | – | Complete | – | – | – | 27.02
LRRFSTMPFMFTNINN-NH2 [SP2032, LRRFSTMPFMFTNINN] | potent activity in inhibiting proliferation | Yes | Yes | 63 | Yes | Yes | – | – | Complete | Inhibition of tube formation | – | 32.45 | –
LRRFSTMPFMFANINNVANF-NH2 [SP2023] | – | Yes | Yes | 96.29 | Yes | Yes | – | – | Complete | – | – | – | 31.18
